US6489334B2, “Method for the crystallization of a tetrahydropyridin derivative and resulting crystalline forms” (Sanofi-Synthelabo, priority 1996, dated 2002)

Columns and labels:
[1] = tested on: amyotrophic lateral sclerosis; conditions: 2 mg/day; cited from earlier work
[2] = preclinical animal pharmacology, toxicology and pharmacokinetic studies; assay type: in vivo, animals
[3] = Phase I clinical trials on healthy volunteers; assay type: in vivo
[4] = tested on: CACO-2 monolayer; assay type: in vitro ADME
Description: A study concerning the determination of the in vitro absorption of SR 57746 A as a micronized form I/III mixture was carried out using the CACO-2 monolayer model. This test, which is widely used as a predictive intestinal epithelial model for drug absorption (P. Artusson, Crit. Rev. Ther. Drug, 1991, 8: 305-330), made it possible to show significant differences in terms of dissolution and permeability between SR 57746 A as a micronized form I/III mixture and the SR 57746 A obtained according to EP 0 101 381.

Compound | clinical outcome in amyotrophic lateral sclerosis patients [1] | pharmacokinetic studies on animals ([2]; animals) | activity and behavior in animal pharmacology and toxicology tests ([2]; preclinical trials) | variability in the pharmacodynamic effects [3] | variability in the plasma concentrations [3] | dissolution and permeability after micronization [4] | rates of dissolution and permeability, compared between the two materials [4]
Cl.FC(F)(F)c1cccc(C2=CCN(CCc3ccc4ccccc4c3)CC2)c1 [SR 57746 A, 1-[2-(2-naphthyl)ethyl]-4-(3-trifluoromethylphenyl)-1,2,3,6-tetrahydropyridine hydrochloride] | proved promising | constant and reproducible results | constant activity and behavior | high variability | high variability |  | 
Cl.FC(F)(F)c1cccc(C2=CCN(CCc3ccc4ccccc4c3)CC2)c1 [1-[2-(2-naphthyl)ethyl]-4-(3-trifluoromethylphenyl)-1,2,3,6-tetrahydropyridine hydrochloride] |  |  |  |  |  | normalized | significantly different
